From patent publication US9902702B2, “Spirocycloheptanes as inhibitors of rock” (BRISTOL-MYERS SQUIBB COMPANY, priority 2014, dated 2018)
Where a name gives a salt, the structure may show the parent alone.

Biological target: ROCK2 (Homo sapiens, UniProt O75116)
Test: ROCK assay: phosphorylation of FITC peptide substrate, LABCHIP 3000 mobility shift
Type: biochemical
Settings: 5 μM ATP, 1.5 μM peptide substrate; read-out: ROCK2 Activity (ROCK IC50 range)
Method in brief: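 IC50 values come from curve-fitting percent kinase inhibition across a compound dilution series. The reaction is started with Rho kinase variant in HEPES pH 7.5 buffer with MgCl2, Brij-35 and DTT, with 5 μM ATP, 1.5 μM FITC-labelled peptide and under 2% DMSO. After EDTA quench, product and substrate are separated by microfluidic mobility shift.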

Chain of ROCK2 (O75116 whole entry, species assumed): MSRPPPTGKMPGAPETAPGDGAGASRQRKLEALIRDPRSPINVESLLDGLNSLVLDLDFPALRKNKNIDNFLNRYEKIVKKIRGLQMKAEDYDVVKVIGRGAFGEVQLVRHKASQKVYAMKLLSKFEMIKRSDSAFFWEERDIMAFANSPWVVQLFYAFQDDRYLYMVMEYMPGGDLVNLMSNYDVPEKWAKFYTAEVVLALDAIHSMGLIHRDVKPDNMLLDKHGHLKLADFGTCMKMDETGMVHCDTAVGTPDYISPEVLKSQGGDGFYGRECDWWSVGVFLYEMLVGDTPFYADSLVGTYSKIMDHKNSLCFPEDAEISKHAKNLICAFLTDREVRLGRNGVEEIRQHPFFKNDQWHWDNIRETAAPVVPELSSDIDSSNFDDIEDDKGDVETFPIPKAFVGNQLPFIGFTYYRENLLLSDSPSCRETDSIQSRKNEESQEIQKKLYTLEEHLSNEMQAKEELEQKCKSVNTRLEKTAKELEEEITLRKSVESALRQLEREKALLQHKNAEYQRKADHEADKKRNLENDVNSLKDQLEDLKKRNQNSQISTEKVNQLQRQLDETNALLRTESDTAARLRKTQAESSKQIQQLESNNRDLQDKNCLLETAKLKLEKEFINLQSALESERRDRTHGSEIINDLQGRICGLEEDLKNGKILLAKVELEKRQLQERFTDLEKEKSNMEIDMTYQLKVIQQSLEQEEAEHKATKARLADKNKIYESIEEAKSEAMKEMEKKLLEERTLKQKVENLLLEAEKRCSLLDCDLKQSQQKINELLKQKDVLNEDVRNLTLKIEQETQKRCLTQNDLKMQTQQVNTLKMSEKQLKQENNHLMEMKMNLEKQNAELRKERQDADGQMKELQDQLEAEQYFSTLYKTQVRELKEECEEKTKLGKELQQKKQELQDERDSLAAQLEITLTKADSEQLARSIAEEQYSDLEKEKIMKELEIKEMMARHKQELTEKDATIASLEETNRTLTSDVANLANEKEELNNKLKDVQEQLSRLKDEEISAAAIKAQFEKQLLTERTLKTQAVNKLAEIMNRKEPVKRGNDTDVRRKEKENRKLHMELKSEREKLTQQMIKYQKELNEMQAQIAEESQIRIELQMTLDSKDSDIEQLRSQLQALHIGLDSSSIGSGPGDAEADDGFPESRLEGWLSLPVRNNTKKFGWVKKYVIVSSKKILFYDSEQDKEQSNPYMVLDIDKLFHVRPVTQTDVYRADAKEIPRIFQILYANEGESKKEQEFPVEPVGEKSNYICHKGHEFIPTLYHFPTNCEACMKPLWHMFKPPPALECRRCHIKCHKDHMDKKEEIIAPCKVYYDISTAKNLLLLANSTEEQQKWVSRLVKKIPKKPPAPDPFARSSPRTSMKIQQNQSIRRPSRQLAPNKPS

COc1ccc2c(c1)CCN2C(=O)NC1CC2(C1)CC(c1n[nH]c(=O)c3ccccc13)C2 [Example 258, 5-methoxy-N-((aR)-6-(4-oxo-3,4-dihydrophthalazin-1-yl)spiro[3.3]heptan-2-yl)indoline-1-carboxamide] and CN(C)S(=O)(=O)c1ccc2c(c1)CCN2C(=O)NC1CC2(C1)CC(c1n[nH]c(=O)c3ccccc13)C2 [Example 260, 5-(N,N-dimethylsulfamoyl)-N-((aR)-6-(4-oxo-3,4-dihydrophthalazin-1-yl)spiro[3.3]heptan-2-yl)indoline-1-carboxamide] fall in the same range of IC50: 5.1 to 15 nM for the first, 5.1 to 15 nM for the second.

O=C(NC1CC2(C1)CC(c1n[nH]c(=O)c3ccccc13)C2)N1CCc2ccc(C(F)(F)F)cc21 [Example 259, N-((aR)-6-(4-oxo-3,4-dihydrophthalazin-1-yl)spiro[3.3]heptan-2-yl)-6-(trifluoromethyl)indoline-1-carboxamide] and COc1ccc2c(c1)CN(C(=O)NC1CC3(C1)CC(c1n[nH]c(=O)c4ccccc14)C3)C2 [Example 263, 5-methoxy-N-((aR)-6-(4-oxo-3,4-dihydrophthalazin-1-yl)spiro[3.3]heptan-2-yl)isoindoline-2-carboxamide] fall in the same range of IC50: 5.1 to 15 nM for the first, 5.1 to 15 nM for the second.

Compared with O=C(NC1CC2(C1)CC(c1n[nH]c(=O)c3ccccc13)C2)N1CC(CN2CCOCC2)c2ccccc21 [Example 261, 3-(morpholinomethyl)-N-((aR)-6-(4-oxo-3,4-dihydrophthalazin-1-yl)spiro[3.3]heptan-2-yl)indoline-1-carboxamide], O=C(N[C@H]1CC2(C1)C[C@H](c1n[nH]c(=O)c3ccccc31)C2)N1CC2(CCNCC2)c2ccccc21 (stereo partly drawn) [Example 265, N-((aR)-6-(4-oxo-3,4-dihydrophthalazin-1-yl)spiro[3.3]heptan-2-yl)spiro[indoline-3,4′-piperidine]-1-carboxamide] is higher in IC50: 15.1 to 100 nM for the first, 100 to 2100 nM for the second.

First: Cc1ccc(-c2ncc3c(n2)CN(C(=O)NC2CC4(C2)CC(c2n[nH]c(=O)c5ccccc25)C4)C3)cc1 [Example 262, N-((aR)-6-(4-oxo-3,4-dihydrophthalazin-1-yl)spiro[3.3]heptan-2-yl)-2-(p-tolyl)-5H-pyrrolo[3,4-d]pyrimidine-6(7H)-carboxamide]
Second: O=C(NC1CC2(C1)CC(c1n[nH]c(=O)c3ccccc13)C2)N1Cc2ccncc2C1 [Example 264, N-((aR)-6-(4-oxo-3,4-dihydrophthalazin-1-yl)spiro[3.3]heptan-2-yl)-1H-pyrrolo[3,4-c]pyridine-2(3H)-carboxamide]
The IC50 of the first is higher: 100 to 2100 nM for the first, 15.1 to 100 nM for the second. The second is the more potent here.

[H][C@]1(c2n[nH]c(=O)c3ccccc32)C[C@]2(C[C@@H](N(C)C(=O)c3nn(C)c4ccccc34)C2)C1 (stereo partly drawn) [Example 266, N,1-dimethyl-N-((aR)-6-(4-oxo-3,4-dihydrophthalazin-1-yl)spiro[3.3]heptan-2-yl)-1H-indazole-3-carboxamide] and [H][C@]1(c2n[nH]c(=O)c3ccccc32)C[C@]2(C[C@@H](N(CC)C(=O)c3nn(C)c4ccccc34)C2)C1 (stereo partly drawn) [Example 267, N-ethyl-1-methyl-N-((aR)-6-(4-oxo-3,4-dihydrophthalazin-1-yl)spiro[3.3]heptan-2-yl)-1H-indazole-3-carboxamide] fall in the same range of IC50: 100 to 2100 nM for the first, 100 to 2100 nM for the second.

[H][C@]1(c2n[nH]c(=O)c3ccccc32)C[C@]2(C[C@@H](NC(=O)c3cnn4cc(OCC(C)(C)OC(=O)CN)ccc34)C2)C1 (stereo partly drawn) [Example 268, 2-methyl-1-((3-(((aR)-6-(4-oxo-3,4-dihydrophthalazin-1-yl)spiro[3.3]heptan-2-yl)carbamoyl)pyrazolo[1,5-a]pyridin-6-yl)oxy)propan-2-yl2-aminoacetate, TFA] and [H][C@]1(c2n[nH]c(=O)c3ccccc32)C[C@]2(C[C@@H](NC(=O)c3cnn4cc(OCC(C)(C)OC(=O)[C@H](C)N)ccc34)C2)C1 (stereo partly drawn) [Example 270, (S)-2-methyl-1-((3-(((aR)-6-(4-oxo-3,4-dihydrophthalazin-1-yl)spiro[3.3]heptan-2-yl)carbamoyl)pyrazolo[1,5-a]pyridin-6-yl)oxy)propan-2-yl2-aminopropanoate, TFA] fall in the same range of IC50: 0.2 to 2 nM for the first, 0.2 to 2 nM for the second.

First: [H][C@]1(c2n[nH]c(=O)c3ccccc32)C[C@]2(C[C@@H](NC(=O)c3cnn4cc(OCC(C)(C)OC(=O)[C@@H](N)C(C)C)ccc34)C2)C1 (stereo partly drawn) [Example 269, (S)-2-methyl-1-((3-(((aR)-6-(4-oxo-3,4-dihydrophthalazin-1-yl)spiro[3.3]heptan-2-yl)carbamoyl)pyrazolo[1,5-a]pyridin-6-yl)oxy)propan-2-yl2-amino-3-methylbutanoate, TFA]
Second: CC(C)(O)COc1ccc2c(C(=O)NC3CC4(C3)CC(c3c[nH]c(=O)c5ccccc35)C4)cnn2c1 (centres unmarked) [Example 271, 6-(2-hydroxy-2-methylpropoxy)-N-(6-(1-oxo-1,2-dihydroisoquinolin-4-yl)spiro[3.3]heptan-2-yl)pyrazolo[1,5-a]pyridine-3-carboxamide]
The IC50 of the first is lower: 0.2 to 2 nM for the first, 2.01 to 5 nM for the second. The first is the more potent here.

CC(C)(C)OC(=O)N1CCc2c(C(=O)N[C@H]3CC4(C3)C[C@H](c3n[nH]c(=O)c5ccccc53)C4)csc2C1 (stereo partly drawn) [Example 272, tert-butyl 3-(((aR)-6-(4-oxo-3,4-dihydrophthalazin-1-yl)spiro[3.3]heptan-2-yl)carbamoyl)-4,5-dihydrothieno[2,3-c]pyridine-6(7H)-carboxylate] and COC(=O)N1CCc2c(C(=O)N[C@H]3CC4(C3)C[C@H](c3n[nH]c(=O)c5ccccc53)C4)csc2C1 (stereo partly drawn) [Example 275, methyl 3-(((aR)-6-(4-oxo-3,4-dihydrophthalazin-1-yl)spiro[3.3]heptan-2-yl)carbamoyl)-4,5-dihydrothieno[2,3-c]pyridine-6(7H)-carboxylate] fall in the same range of IC50: 5.1 to 15 nM for the first, 5.1 to 15 nM for the second.

First: CC(=O)N1CCc2c(C(=O)N[C@H]3CC4(C3)C[C@H](c3n[nH]c(=O)c5ccccc53)C4)csc2C1 (stereo partly drawn) [Example 274, 6-acetyl-N-((aR)-6-(4-oxo-3,4-dihydrophthalazin-1-yl)spiro[3.3]heptan-2-yl)-4,5,6,7-tetrahydrothieno[2,3-c]pyridine-3-carboxamide]
Second: CS(=O)(=O)N1CCc2c(C(=O)N[C@H]3CC4(C3)C[C@H](c3n[nH]c(=O)c5ccccc53)C4)csc2C1 (stereo partly drawn) [Example 276, 6-(methylsulfonyl)-N-((aR)-6-(4-oxo-3,4-dihydrophthalazin-1-yl)spiro[3.3]heptan-2-yl)-4,5,6,7-tetrahydrothieno[2,3-c]pyridine-3-carboxamide]
The IC50 of the first is lower: 5.1 to 15 nM for the first, 15.1 to 100 nM for the second. The first is the more potent here.

First: Cn1cc(-c2ccc3c(C(=O)N[C@H]4CC5(C4)C[C@H](c4n[nH]c(=O)c6ccccc64)C5)onc3c2)cn1 (stereo partly drawn) [Example 277, 6-(1-methyl-1H-pyrazol-4-yl)-N-((aR)-6-(4-oxo-3,4-dihydrophthalazin-1-yl)spiro[3.3]heptan-2-yl)benzo[c]isoxazole-3-carboxamide]
Second: O=C(N[C@H]1CC2(C1)C[C@H](c1n[nH]c(=O)c3ccccc31)C2)c1onc2cc(Br)ccc12 (stereo partly drawn) [Example 284, 6-bromo-N-((aR)-6-(4-oxo-3,4-dihydrophthalazin-1-yl)spiro[3.3]heptan-2-yl)benzo[c]isoxazole-3-carboxamide]
The IC50 of the first is lower: 0.2 to 2 nM for the first, 2.01 to 5 nM for the second. The first is the more potent here.

CC(C)(O)Cn1nc(C(=O)NC2CC3(C2)CC(c2n[nH]c(=O)n4cccc24)C3)c2ccccc21 (centres unmarked) [Example 278, 1-(2-hydroxy-2-methylpropyl)-N-(6-(4-oxo-3,4-dihydropyrrolo[1,2-d][1,2,4]triazin-1-yl)spiro[3.3]heptan-2-yl)-1H-indazole-3-carboxamide, TFA] and Cn1nc(C(=O)NC2CC3(C2)CC(c2n[nH]c(=O)n4cccc24)C3)c2ccccc21 (centres unmarked) [Example 280, 1-methyl-N-(6-(4-oxo-3,4-dihydropyrrolo[1,2-d][1,2,4]triazin-1-yl)spiro[3.3]heptan-2-yl)-1H-indazole-3-carboxamide, TFA] fall in the same range of IC50: 5.1 to 15 nM for the first, 5.1 to 15 nM for the second.

First: CC(C)(O)COc1ccc2c(C(=O)NC3CC4(C3)CC(c3n[nH]c(=O)n5cccc35)C4)cnn2c1 (centres unmarked) [Example 279, 6-(2-hydroxy-2-methylpropoxy)-N-(6-(4-oxo-3,4-dihydropyrrolo[1,2-d][1,2,4]triazin-1-yl)spiro[3.3]heptan-2-yl)pyrazolo[1,5-a]pyridine-3-carboxamide, TFA]
Second: Cc1ccn2c(=O)[nH]nc(C3CC4(CC(NC(=O)c5cnn6cc(OCC(C)(C)O)ccc56)C4)C3)c12 (centres unmarked) [Example 281, 6-(2-hydroxy-2-methylpropoxy)-N-(6-(8-methyl-4-oxo-3,4-dihydropyrrolo[1,2-d][1,2,4]triazin-1-yl)spiro[3.3]heptan-2-yl)pyrazolo[1,5-a]pyridine-3-carboxamide, TFA]
The IC50 of the first is lower: 2.01 to 5 nM for the first, 5.1 to 15 nM for the second.

First: O=C(NC1CC2(C1)CC(c1n[nH]c(=O)c3ccccc13)C2)c1cnn2cccnc12 [Example 282, N-((aR)-6-(4-oxo-3,4-dihydrophthalazin-1-yl)spiro[3.3]heptan-2-yl)pyrazolo[1,5-a]pyrimidine-3-carboxamide]
Second: CCn1nccc1C(=O)NC1CC2(C1)CC(c1n[nH]c(=O)c3ccccc13)C2 [Example 285, 1-ethyl-N-((aR)-6-(4-oxo-3,4-dihydrophthalazin-1-yl)spiro[3.3]heptan-2-yl)-1H-pyrazole-5-carboxamide]
The IC50 of the first is higher: 100 to 2100 nM for the first, 15.1 to 100 nM for the second. The second is the more potent here.

First: Cc1cc(C)cc(Nc2ccc3ncc(C(=O)NC4CC5(C4)CC(c4n[nH]c(=O)c6ccccc46)C5)n3n2)c1 [Example 283, 6-((3,5-dimethylphenyl)amino)-N-((aR)-6-(4-oxo-3,4-dihydrophthalazin-1-yl)spiro[3.3]heptan-2-yl)imidazo[1,2-b]pyridazine-3-carboxamide]
Second: O=C(NC1CC2(C1)CC(c1n[nH]c(=O)c3ccccc13)C2)c1ccnn1C(F)F [Example 286, 1-(difluoromethyl)-N-((aR)-6-(4-oxo-3,4-dihydrophthalazin-1-yl)spiro[3.3]heptan-2-yl)-1H-pyrazole-5-carboxamide]
The IC50 of the first is higher: 100 to 2100 nM for the first, 15.1 to 100 nM for the second.

With CC(C)(O)COc1ccc2c(C(=O)NC3CC4(C3)CC(c3n[nH]c(=O)c5ccccc35)C4)onc2c1 [Example 287, 6-(2-hydroxy-2-methylpropoxy)-N-((aR)-6-(4-oxo-3,4-dihydrophthalazin-1-yl)spiro[3.3]heptan-2-yl)benzo[c]isoxazole-3-carboxamide, TFA] the IC50 was 0.2 to 2 nM.
